{"source": "patent US20110028518A1", "about": "“DEXLANSOPRAZOLE PROCESS AND POLYMORPHS” (DR. REDDY'S LABORATORIES LTD., priority 2008, published 2011)", "test": "Storage stability studies (Example 27): appearance, PXRD, HPLC purity, impurities and chiral purity", "assay_type": "physicochemical", "conditions": "for Chiral Purity / Highest Impurity / Purity / Sulfide / Sulfone: HPLC", "source_text": "A high performance liquid chromatography (HPLC) method for measuring the chemical purity of dexlansoprazole or a compound of formula (VII) of the present application, and for determination of their corresponding impurities, involves the use of a YMC-PAK ODS-A 100×4.6, 3 μm or equivalent column.\nA high performance liquid chromatography method useful for measuring the enantiomeric purity of dexlansoprazole or a compound of formula (VII) of the present application involves the use of a Chiralpak-IC, 250×4.6 mm or equivalent column.\nProducts from certain of the above examples and a crystalline dexlansoprazole, prepared according to Example 2 of U.S. Pat. No. 6,462,058, were tested for their storage stabilities. The samples were stored in tied clear polyethylene bags that were placed in sealed black polyethylene bags along with a silica gel desiccant pouch filled with nitrogen, and finally the black bags were placed into triple laminated foil bags along with a silica gel pouch and then sealed and stored in HDPE drum packages under the conditions noted in the following results tables. Samples were analyzed before storage, at intervals during storage, and after storage.\nSamples were analyzed by HPLC for chemical purity, for:\na “sulfide” impurity, having a chemical name 2-[[{4-(2,2,2-trifluoroethoxy)-3-methylpyridine-2-yl}methyl]thio]-1H-benzimidazole and the following structure;\na “sulfone” impurity, having a chemical name 2-[[{4-(2,2,2-trifluoroethoxy)-3-methylpyridine-2-yl}methyl]sulfonyl]-1H-benzimidazole and the following structure;\nand for chiral purity. Also given in the tables is the concentration of the highest unidentified impurity, as determined by HPLC, and the PXRD analysis result. All percentages given below are expressed on a weight basis.", "key": {"[1]": {"conditions": "Initial Analysis, before storage"}}, "data": [{"smiles": "Cc1c(OCC(F)(F)F)ccnc1C[S@@+]([O-])c1nc2ccccc2[nH]1", "note": "[Example 8, dexlansoprazole]", "values": [{"measurement": "Appearance", "setting": "After 1 Week at 2-8° C.", "value": "Light yellow"}, {"measurement": "PXRD", "setting": "After 1 Week at 2-8° C.", "value": "Amorphous"}, {"measurement": "Chiral Purity", "setting": "After 1 Week at 2-8° C.", "value": 99.89, "unit": "%"}, {"measurement": "Highest Impurity", "setting": "After 1 Week at 2-8° C.", "value": 0.13, "unit": "%"}, {"measurement": "Purity", "setting": "After 1 Week at 2-8° C.", "value": 97.21, "unit": "%"}, {"measurement": "Sulfide", "setting": "After 1 Week at 2-8° C.", "value": 1.83, "unit": "%"}, {"measurement": "Sulfone", "setting": "After 1 Week at 2-8° C.", "value": 0.63, "unit": "%"}, {"measurement": "Appearance", "setting": "After 1 Week at 25-35° C.", "value": "Light yellow"}, {"measurement": "PXRD", "setting": "After 1 Week at 25-35° C.", "value": "Amorphous"}, {"measurement": "Chiral Purity", "setting": "After 1 Week at 25-35° C.", "value": 99.86, "unit": "%"}, {"measurement": "Highest Impurity", "setting": "After 1 Week at 25-35° C.", "value": 0.14, "unit": "%"}, {"measurement": "Purity", "setting": "After 1 Week at 25-35° C.", "value": 97.12, "unit": "%"}, {"measurement": "Sulfide", "setting": "After 1 Week at 25-35° C.", "value": 1.84, "unit": "%"}, {"measurement": "Sulfone", "setting": "After 1 Week at 25-35° C.", "value": 0.68, "unit": "%"}, {"measurement": "Appearance", "setting": "After 2 Weeks at 2-8° C.", "value": "Light yellow"}, {"measurement": "PXRD", "setting": "After 2 Weeks at 2-8° C.", "value": "Amorphous"}, {"measurement": "Chiral Purity", "setting": "After 2 Weeks at 2-8° C.", "value": 99.87, "unit": "%"}, {"measurement": "Highest Impurity", "setting": "After 2 Weeks at 2-8° C.", "value": 0.11, "unit": "%"}, {"measurement": "Purity", "setting": "After 2 Weeks at 2-8° C.", "value": 97.21, "unit": "%"}, {"measurement": "Sulfide", "setting": "After 2 Weeks at 2-8° C.", "value": 1.79, "unit": "%"}, {"measurement": "Sulfone", "setting": "After 2 Weeks at 2-8° C.", "value": 0.63, "unit": "%"}, {"measurement": "Appearance", "setting": "After 2 Weeks at 25-35° C.", "value": "Light yellow"}, {"measurement": "PXRD", "setting": "After 2 Weeks at 25-35° C.", "value": "Amorphous"}, {"measurement": "Chiral Purity", "setting": "After 2 Weeks at 25-35° C.", "value": 99.86, "unit": "%"}, {"measurement": "Highest Impurity", "setting": "After 2 Weeks at 25-35° C.", "value": 0.11, "unit": "%"}, {"measurement": "Purity", "setting": "After 2 Weeks at 25-35° C.", "value": 97.23, "unit": "%"}, {"measurement": "Sulfide", "setting": "After 2 Weeks at 25-35° C.", "value": 0.63, "unit": "%"}, {"measurement": "Sulfone", "setting": "After 2 Weeks at 25-35° C.", "value": 1.78, "unit": "%"}, {"measurement": "Appearance", "setting": "After 3 Weeks at 2-8° C.", "value": "Light yellow"}, {"measurement": "PXRD", "setting": "After 3 Weeks at 2-8° C.", "value": "Amorphous"}, {"measurement": "Chiral Purity", "setting": "After 3 Weeks at 2-8° C.", "value": 99.85, "unit": "%"}, {"measurement": "Highest Impurity", "setting": "After 3 Weeks at 2-8° C.", "value": 0.12, "unit": "%"}, {"measurement": "Purity", "setting": "After 3 Weeks at 2-8° C.", "value": 97.27, "unit": "%"}, {"measurement": "Sulfide", "setting": "After 3 Weeks at 2-8° C.", "value": 1.77, "unit": "%"}, {"measurement": "Sulfone", "setting": "After 3 Weeks at 2-8° C.", "value": 0.62, "unit": "%"}, {"measurement": "Appearance", "setting": "After 3 Weeks at 25-35° C.", "value": "Light yellow"}, {"measurement": "PXRD", "setting": "After 3 Weeks at 25-35° C.", "value": "Amorphous"}, {"measurement": "Chiral Purity", "setting": "After 3 Weeks at 25-35° C.", "value": 99.84, "unit": "%"}, {"measurement": "Highest Impurity", "setting": "After 3 Weeks at 25-35° C.", "value": 0.15, "unit": "%"}, {"measurement": "Purity", "setting": "After 3 Weeks at 25-35° C.", "value": 97, "unit": "%"}, {"measurement": "Sulfide", "setting": "After 3 Weeks at 25-35° C.", "value": 1.79, "unit": "%"}, {"measurement": "Sulfone", "setting": "After 3 Weeks at 25-35° C.", "value": 0.63, "unit": "%"}, {"measurement": "Appearance", "setting": "[1]", "value": "Light yellow"}, {"measurement": "PXRD", "setting": "[1]", "value": "Amorphous"}, {"measurement": "Chiral Purity", "setting": "[1]", "value": 99.86, "unit": "%"}, {"measurement": "Highest Impurity", "setting": "[1]", "value": 0.24, "unit": "%"}, {"measurement": "Purity", "setting": "[1]", "value": 97.14, "unit": "%"}, {"measurement": "Sulfide", "setting": "[1]", "value": 1.77, "unit": "%"}, {"measurement": "Sulfone", "setting": "[1]", "value": 0.61, "unit": "%"}]}, {"smiles": "Cc1c(OCC(F)(F)F)ccnc1C[S@@+]([O-])c1nc2ccccc2[nH]1", "note": "[Example 16 (A), dexlansoprazole]", "values": [{"measurement": "Appearance", "setting": "After 1 Week at 2-8° C.", "value": "Light brown"}, {"measurement": "PXRD", "setting": "After 1 Week at 2-8° C.", "value": "Amorphous"}, {"measurement": "Chiral Purity", "setting": "After 1 Week at 2-8° C.", "value": 96.57, "unit": "%"}, {"measurement": "Highest Impurity", "setting": "After 1 Week at 2-8° C.", "value": 0.09, "unit": "%"}, {"measurement": "Purity", "setting": "After 1 Week at 2-8° C.", "value": 83.76, "unit": "%"}, {"measurement": "Sulfide", "setting": "After 1 Week at 2-8° C.", "value": 13.78, "unit": "%"}, {"measurement": "Sulfone", "setting": "After 1 Week at 2-8° C.", "value": 1.48, "unit": "%"}, {"measurement": "Appearance", "setting": "After 1 Week at 25-35° C.", "value": "Light brown"}, {"measurement": "PXRD", "setting": "After 1 Week at 25-35° C.", "value": "Amorphous"}, {"measurement": "Chiral Purity", "setting": "After 1 Week at 25-35° C.", "value": 96.56, "unit": "%"}, {"measurement": "Highest Impurity", "setting": "After 1 Week at 25-35° C.", "value": 0.14, "unit": "%"}, {"measurement": "Purity", "setting": "After 1 Week at 25-35° C.", "value": 83.03, "unit": "%"}, {"measurement": "Sulfide", "setting": "After 1 Week at 25-35° C.", "value": 13.83, "unit": "%"}, {"measurement": "Sulfone", "setting": "After 1 Week at 25-35° C.", "value": 1.55, "unit": "%"}, {"measurement": "Appearance", "setting": "After 2 Weeks at 2-8° C.", "value": "Light brown"}, {"measurement": "PXRD", "setting": "After 2 Weeks at 2-8° C.", "value": "Amorphous"}, {"measurement": "Chiral Purity", "setting": "After 2 Weeks at 2-8° C.", "value": 96.86, "unit": "%"}, {"measurement": "Highest Impurity", "setting": "After 2 Weeks at 2-8° C.", "value": 0.17, "unit": "%"}, {"measurement": "Purity", "setting": "After 2 Weeks at 2-8° C.", "value": 83.6, "unit": "%"}, {"measurement": "Sulfide", "setting": "After 2 Weeks at 2-8° C.", "value": 13.63, "unit": "%"}, {"measurement": "Sulfone", "setting": "After 2 Weeks at 2-8° C.", "value": 1.45, "unit": "%"}, {"measurement": "Appearance", "setting": "After 2 Weeks at 25-35° C.", "value": "Light brown"}, {"measurement": "PXRD", "setting": "After 2 Weeks at 25-35° C.", "value": "Amorphous"}, {"measurement": "Chiral Purity", "setting": "After 2 Weeks at 25-35° C.", "value": 96.49, "unit": "%"}, {"measurement": "Highest Impurity", "setting": "After 2 Weeks at 25-35° C.", "value": 1.16, "unit": "%"}, {"measurement": "Purity", "setting": "After 2 Weeks at 25-35° C.", "value": 80.85, "unit": "%"}, {"measurement": "Sulfide", "setting": "After 2 Weeks at 25-35° C.", "value": 13.8, "unit": "%"}, {"measurement": "Sulfone", "setting": "After 2 Weeks at 25-35° C.", "value": 1.49, "unit": "%"}, {"measurement": "Appearance", "setting": "After 3 Weeks at 2-8° C.", "value": "Light brown"}, {"measurement": "PXRD", "setting": "After 3 Weeks at 2-8° C.", "value": "Amorphous"}, {"measurement": "Chiral Purity", "setting": "After 3 Weeks at 2-8° C.", "value": 96.73, "unit": "%"}, {"measurement": "Highest Impurity", "setting": "After 3 Weeks at 2-8° C.", "value": 0.07, "unit": "%"}, {"measurement": "Purity", "setting": "After 3 Weeks at 2-8° C.", "value": 83.9, "unit": "%"}, {"measurement": "Sulfide", "setting": "After 3 Weeks at 2-8° C.", "value": 13.69, "unit": "%"}, {"measurement": "Sulfone", "setting": "After 3 Weeks at 2-8° C.", "value": 1.5, "unit": "%"}, {"measurement": "Appearance", "setting": "After 3 Weeks at 25-35° C.", "value": "Light brown"}, {"measurement": "PXRD", "setting": "After 3 Weeks at 25-35° C.", "value": "Amorphous"}, {"measurement": "Chiral Purity", "setting": "After 3 Weeks at 25-35° C.", "value": 96.67, "unit": "%"}, {"measurement": "Highest Impurity", "setting": "After 3 Weeks at 25-35° C.", "value": 0.8, "unit": "%"}, {"measurement": "Purity", "setting": "After 3 Weeks at 25-35° C.", "value": 82.07, "unit": "%"}, {"measurement": "Sulfide", "setting": "After 3 Weeks at 25-35° C.", "value": 13.69, "unit": "%"}, {"measurement": "Sulfone", "setting": "After 3 Weeks at 25-35° C.", "value": 1.51, "unit": "%"}, {"measurement": "Appearance", "setting": "[1]", "value": "Light brown"}, {"measurement": "PXRD", "setting": "[1]", "value": "Amorphous"}, {"measurement": "Chiral Purity", "setting": "[1]", "value": 96.59, "unit": "%"}, {"measurement": "Highest Impurity", "setting": "[1]", "value": 0.08, "unit": "%"}, {"measurement": "Purity", "setting": "[1]", "value": 84.42, "unit": "%"}, {"measurement": "Sulfide", "setting": "[1]", "value": 13.43, "unit": "%"}, {"measurement": "Sulfone", "setting": "[1]", "value": 1.45, "unit": "%"}]}]}
